Experiments:
CYP2E1 = CYP2E1 (Homo sapiens, UniProt P05181); test: Inhibition of CYP2E1 in human liver microsomes from 10 healthy donors at 200 uM aliskiren (SPP100); type: ADME, Microsome; set-up: conc 200 uM; settings: probe chlorzoxazone (6-hydroxylation)
[1] = % SPP100 (0-72h) recovered in faeces following single intravenous dose of [14C] aliskiren hemifumarate at 1 mg.Kg-1 level in marmoset; type: ADME, organism-based, Callithrix jacchus, Feces; settings: in vivo
[2] = Oral clearance of SPP100 following single oral dose of SPP100 600 mg capsule studied in healthy human; type: ADME, organism-based; settings: plasma
CYP2A6 = biological target: T1, CYP2A6 (Homo sapiens, UniProt P11509); test: Inhibitory activity of 200 uM SPP100 on 34 Pmoles of cDNA-derived CYP2A6 enzyme in microsome prepared from human lymphoblastoid cell line; type: ADME, microsomes; set-up: conc 200 uM, interact cpd conc 3 uM; settings: probe coumarine
T1 sequence (P11509 whole entry): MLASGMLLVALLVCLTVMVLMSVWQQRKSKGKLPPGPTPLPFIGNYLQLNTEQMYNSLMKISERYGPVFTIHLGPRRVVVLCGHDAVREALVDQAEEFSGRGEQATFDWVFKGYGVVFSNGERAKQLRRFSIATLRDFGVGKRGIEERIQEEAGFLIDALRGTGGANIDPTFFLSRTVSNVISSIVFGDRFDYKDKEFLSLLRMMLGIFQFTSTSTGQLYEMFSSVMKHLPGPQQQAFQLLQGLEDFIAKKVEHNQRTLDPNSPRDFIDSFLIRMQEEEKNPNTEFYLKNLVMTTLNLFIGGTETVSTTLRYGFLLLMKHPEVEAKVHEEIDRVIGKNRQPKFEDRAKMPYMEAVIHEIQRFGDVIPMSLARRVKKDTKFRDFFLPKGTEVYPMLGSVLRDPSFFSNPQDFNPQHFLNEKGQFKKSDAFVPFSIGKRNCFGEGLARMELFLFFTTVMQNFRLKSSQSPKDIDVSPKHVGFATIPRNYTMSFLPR

[3] = Excretion of radioactivity (0-24h) in faeces following single intravenous dose of 10 mg.Kg-1 [14C] aliskiren hemifumarate in mouse; type: ADME, organism-based, TgRasH2, Feces; settings: in vivo
[4] = Excretion of radioactivity (0-384h) in faeces following 10 day repeated oral administration of [14C] aliskiren hemifumarate at 100 mg.Kg-1 level studied in rat; type: ADME, organism-based, Albino HAN:WIST, Feces; settings: in vivo
Cytochrome P450 3A5 = Cytochrome P450 3A5 (Homo sapiens, UniProt P20815); test: Metabolic clearance (ul.min.nmol-1 CYP) of aliskiren hemifumarate for CYP3A5 was determined in human liver microsome incubated with [14C]SPP100 hemifumarate; type: ADME; settings: microsomes
[5] = Concentration of radioactivity in the liver following repeated oral administration of [14C] aliskiren hemifumarate at 100 mg.Kg-1 level studied at 24h after 3rd dose in rat; type: ADME, organism-based, Albino HAN:WIST; settings: in vivo
[6] = Concentration of radioactivity in the colon wall following repeated oral administration of [14C] aliskiren hemifumarate at 100 mg.Kg-1 level studied at 2h after 7th dose in rat; type: ADME, organism-based, Albino HAN:WIST; settings: in vivo
[7] = Excretion of radioactivity (48-72h) in urine following single intravenous dose of 10 mg.Kg-1 [14C] aliskiren hemifumarate in rat; type: ADME, organism-based, Albino HAN:WIST; settings: in vivo
[8] = Tmax of radioactivity following repeated oral administration of [14C] aliskiren hemifumarate at 100 mg.Kg-1 level studied after 2h of dosing on day 10 in rat; type: ADME, organism-based, Albino HAN:WIST; settings: in vivo
[9] = Concentration of radioactivity in the kidney medulla following repeated oral administration of [14C] aliskiren hemifumarate at 100 mg.Kg-1 level studied at 24h after 7th dose in rat; type: ADME, organism-based, Albino HAN:WIST, Renal medulla; settings: in vivo
[10] = Excretion of radioactivity (0-72h) in urine following single intravenous dose of 10 mg.Kg-1 [14C] aliskiren hemifumarate in mouse; type: ADME, organism-based, TgRasH2; settings: in vivo
[11] = Plasma concentration of [14C] aliskiren hemifumarate in first 24h following single oral dose of [14C] aliskiren hemifumarate at 500 mg.Kg-1 level in mouse; type: ADME, organism-based, TgRasH2; settings: in vivo
[12] = Concentration of radioactivity in the brown fat following repeated oral administration of [14C] aliskiren hemifumarate at 100 mg.Kg-1 level studied at 2h after 7th dose in rat; type: ADME, organism-based, Albino HAN:WIST, Brown adipose tissue; settings: in vivo
[13] = Mean excretion of radioactivity (48-72h) in urine and faeces following single intravenous dose of 10 mg.Kg-1 [14C] aliskiren hemifumarate in rat; type: ADME, organism-based, Albino HAN:WIST, Urine/Feces; settings: in vivo
[14] = AUC/dose (0-168h) of total radioactivity following single intravenous administration of [14C] aliskiren hemifumarate at 1 mg.Kg-1 level in marmoset; type: ADME, organism-based, Callithrix jacchus, Plasma; settings: in vivo
[15] = Elimination (0-96h) of radioactivity via biliary route following oral administration of [14C] aliskiren hemifumarate at 100 mg.Kg-1 level in rat; type: ADME, organism-based, Albino HAN:WIST, Bile; settings: in vivo
[16] = Cmax of aliskiren hemifumarate following single dosing of SPP100B oral solution at 160 mg level studied on day 1 in men; type: ADME, organism-based; settings: male, human, plasma
[17] = Tmax of aliskiren hemifumarate following 4 week oral dietary dosing of aliskiren hemifumarate at 1000 mg.Kg-1 level in male mouse; type: ADME, organism-based; settings: CB6F1-TGrasH2, mouse, in vivo
[18] = AUC of aliskiren hemifumarate following 8 day once-daily dosing of SPP100B oral solution at 40 mg level studied on day 8 in men; type: ADME, organism-based; settings: male, human, plasma
[19] = AUC (0-24h) of aliskiren hemifumarate following 4 week oral dietary dosing of aliskiren hemifumarate at 1500 mg.Kg-1 level in female mouse; type: ADME, organism-based; settings: CB6F1-TGrasH2, mouse, plasma
[20] = Tmax of aliskiren hemifumarate following 2 week oral dosing of aliskiren hemifumarate at 100 mg.Kg-1 level studied on day 14 in female Callithrix jacchus; type: ADME, organism-based; settings: marmoset, plasma
[21] = Effect of 2 week oral dosing of aliskiren hemifumarate at 50 mg.Kg-1 level on blood urea nitrogen level in male Callithrix jacchus; type: toxicity, organism-based, Plasma; settings: marmoset, 336 h
[22] = AUC (0-24h) of aliskiren hemifumarate following 4 week oral dietary dosing of aliskiren hemifumarate at 2000 mg.Kg-1 level in female mouse; type: ADME, organism-based; settings: CB6F1-TGrasH2, mouse, plasma
[23] = Cmax of aliskiren hemifumarate following 2 week oral dosing of aliskiren hemifumarate at 50 mg.Kg-1 level studied on day 1 in male Callithrix jacchus; type: ADME, organism-based; settings: marmoset, plasma
[24] = Effect of 2 week oral dosing of aliskiren hemifumarate at 10 mg.Kg-1 level on hematological parameter values in male Callithrix jacchus; type: toxicity, organism-based, Plasma; settings: marmoset, in vivo, 336 h
[25] = Tmax of aliskiren hemifumarate following 2 week oral dosing of aliskiren hemifumarate at 50 mg.Kg-1 level studied on day 1 in female Callithrix jacchus; type: ADME, organism-based; settings: marmoset, plasma
[26] = Cmax of aliskiren hemifumarate following 4 week oral dietary dosing of aliskiren hemifumarate at 1500 mg.Kg-1 level in female mouse; type: ADME, organism-based; settings: CB6F1-TGrasH2, mouse, in vivo
[27] = Cmaxspec of aliskiren hemifumarate following 2 week oral dosing of aliskiren hemifumarate at 100 mg.Kg-1 level studied on day 14 in male Callithrix jacchus; type: ADME, organism-based, Plasma; settings: marmoset, in vivo, 336 h
[28] = t1/2 of aliskiren hemifumarate following 2 week oral dosing of aliskiren hemifumarate at 100 mg.Kg-1 level studied on day 1 in male Callithrix jacchus; type: ADME, organism-based; settings: marmoset, plasma
[29] = Cmax of aliskiren hemifumarate following 4 week oral dietary dosing of aliskiren hemifumarate at 1500 mg.Kg-1 level in male mouse; type: ADME, organism-based; settings: CB6F1-TGrasH2, mouse, in vivo
[30] = Apparent terminal half-life (0-168h) of unlabeled aliskiren hemifumarate following single intravenous administration of aliskiren hemifumarate at 1 mg.Kg-1 level in marmoset; type: ADME, organism-based, Callithrix jacchus; settings: plasma

Chain of Cytochrome P450 3A5 (P20815 whole entry): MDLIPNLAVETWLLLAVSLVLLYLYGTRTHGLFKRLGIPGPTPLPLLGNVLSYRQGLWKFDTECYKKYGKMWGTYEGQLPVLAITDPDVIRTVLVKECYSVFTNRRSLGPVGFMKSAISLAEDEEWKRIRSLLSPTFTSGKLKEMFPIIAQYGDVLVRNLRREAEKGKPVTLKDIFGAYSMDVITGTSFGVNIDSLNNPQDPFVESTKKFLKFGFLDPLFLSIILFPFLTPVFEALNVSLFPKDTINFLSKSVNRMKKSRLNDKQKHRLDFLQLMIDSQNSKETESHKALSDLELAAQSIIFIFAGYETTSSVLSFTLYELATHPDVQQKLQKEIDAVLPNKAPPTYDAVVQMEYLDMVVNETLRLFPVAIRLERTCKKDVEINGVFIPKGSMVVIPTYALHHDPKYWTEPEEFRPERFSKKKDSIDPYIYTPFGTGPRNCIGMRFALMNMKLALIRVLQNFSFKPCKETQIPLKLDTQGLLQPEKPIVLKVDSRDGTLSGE
Chain of CYP2E1 (P05181 whole entry): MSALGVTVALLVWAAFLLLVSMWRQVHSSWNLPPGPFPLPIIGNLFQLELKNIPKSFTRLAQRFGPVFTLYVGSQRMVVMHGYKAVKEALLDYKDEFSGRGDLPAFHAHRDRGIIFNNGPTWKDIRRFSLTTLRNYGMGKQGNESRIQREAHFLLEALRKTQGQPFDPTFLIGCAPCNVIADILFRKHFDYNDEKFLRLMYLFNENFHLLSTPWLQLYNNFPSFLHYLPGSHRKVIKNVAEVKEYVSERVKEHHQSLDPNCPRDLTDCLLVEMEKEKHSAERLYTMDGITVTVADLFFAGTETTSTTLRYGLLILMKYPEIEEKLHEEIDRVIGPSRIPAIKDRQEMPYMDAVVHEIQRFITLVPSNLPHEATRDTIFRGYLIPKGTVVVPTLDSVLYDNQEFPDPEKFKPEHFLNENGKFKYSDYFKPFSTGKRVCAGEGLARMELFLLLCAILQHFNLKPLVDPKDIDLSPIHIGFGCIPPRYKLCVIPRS

COCCCOc1cc(C[C@@H](C[C@H](N)[C@@H](O)C[C@H](C(=O)NCC(C)(C)C(N)=O)C(C)C)C(C)C)ccc1OC
inhibition at 200 µM (CYP2E1): -12.8%
Compound recovery [1]: 36%
CL/F [2]: 3700 mL/min
inhibition at 200 µM (CYP2A6): 10.5%

COCCCOc1cc(C[C@@H](C[C@H](N)[C@@H](O)C[C@H](C(=O)NCC([14CH3])([14CH3])C(N)=O)C(C)C)C(C)C)ccc1OC.O=C(O)/C=C/C(=O)O
Radiolabel recovery [3]: 84.68%
Radiolabel recovery [4]: 102%
CL (Cytochrome P450 3A5): 47 µL·min/nmol
Radiolabel recovery [5]: OUTCOME = Detected
Radiolabel recovery [6]: OUTCOME = Observed, VALUE = Highest radioactivity concentration was observed
Radiolabel recovery [7]: 16.2%
Tmax(10) [8]: 218 h
Radiolabel recovery [9]: OUTCOME = Detected
Radiolabel recovery [10]: 87.94%
Compound recovery [11]: 56%
Radiolabel recovery [12]: OUTCOME = Detected
Radiolabel recovery [13]: 5.05%
AUC normalised [14]: 52.92 (umol.h/L)/(mg/kg)
Radiolabel recovery [15]: OUTCOME = Observed/Elimination of radioactivity was mainly via biliary route

COCCCOc1cc(C[C@@H](C[C@H](N)[C@@H](O)C[C@H](C(=O)NCC(C)(C)C(N)=O)C(C)C)C(C)C)ccc1OC.COCCCOc1cc(C[C@@H](C[C@H](N)[C@@H](O)C[C@H](C(=O)NCC(C)(C)C(N)=O)C(C)C)C(C)C)ccc1OC.O=C(O)/C=C/C(=O)O [ALISKIREN FUMARATE]
Cmax [16]: 21.5 ng/mL
Tmax [17]: 3 h
AUC at 192 h [18]: 46.7 ng·h/mL
AUC(0-t) at 24 h [19]: 5470 ng·h/mL
Tmax [20]: 2 h
BUN_CHANGE_BY [21]: 105%
AUC(0-t) at 24 h [22]: 11800 ng·h/mL
Cmax [23]: 6290 ng/mL
Change in hematology [24]: OUTCOME = Hematological parameter values did not differ from control values. No animals died during the study.
Tmax [25]: 1 h
Cmax [26]: 1020 ng/mL
Cmax normalised [27]: 0.097 (ug/ml)/(mg/kg)
half-life [28]: 12.8 h
Cmax [29]: 363 ng/mL
half-life [30]: 36 h

Source: ChEMBL document CHEMBL3508693 (2016)
